Read-outs that look alike come from different tables or passages of the source.
Tests used:
[1] = molecular target: T1, human recombinant adrenergic α2B receptor (Homo sapiens, UniProt P18089); assay: Radioligand binding, adrenergic α2B ([3H]Rauwolscine)
T1 construct: expressed in transfected cells; host or cells: CHO-K1
T1 sequence (P18089 1-450): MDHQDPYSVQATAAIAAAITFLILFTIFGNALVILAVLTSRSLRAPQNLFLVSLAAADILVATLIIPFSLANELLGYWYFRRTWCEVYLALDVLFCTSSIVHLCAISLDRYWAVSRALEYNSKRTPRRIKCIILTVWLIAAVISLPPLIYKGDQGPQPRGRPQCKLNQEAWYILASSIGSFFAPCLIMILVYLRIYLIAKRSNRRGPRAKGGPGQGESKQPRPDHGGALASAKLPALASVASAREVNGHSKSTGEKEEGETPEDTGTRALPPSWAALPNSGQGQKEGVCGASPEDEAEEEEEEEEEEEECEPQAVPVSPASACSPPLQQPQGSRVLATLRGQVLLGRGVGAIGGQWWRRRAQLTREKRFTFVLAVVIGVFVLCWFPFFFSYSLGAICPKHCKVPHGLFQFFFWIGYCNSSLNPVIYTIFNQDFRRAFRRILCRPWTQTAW
In short: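 Receptor expressed in CHO-K1 cells, assayed in 50 mM Tris-HCl pH 7.4 with 12.5 mM MgCl2, 1 mM EDTA and 0.2% BSA. Compounds were incubated with 2.5 nM [3H]Rauwolscine for 60 min at 25° C; 10 μM Prazosin defined non-specific binding. Filter counting gave percent inhibition of specific binding.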

[2] = molecular target: T2, rat adrenergic α1B receptor (Rattus norvegicus, UniProt P15823); assay: Radioligand binding, adrenergic α1B ([3H]Prazosin)
T2 construct: rat adrenergic α1B receptor obtained from Wistar Rat liver; from tissue; host or cells: Wistar rat liver
T2 sequence (P15823 1-515): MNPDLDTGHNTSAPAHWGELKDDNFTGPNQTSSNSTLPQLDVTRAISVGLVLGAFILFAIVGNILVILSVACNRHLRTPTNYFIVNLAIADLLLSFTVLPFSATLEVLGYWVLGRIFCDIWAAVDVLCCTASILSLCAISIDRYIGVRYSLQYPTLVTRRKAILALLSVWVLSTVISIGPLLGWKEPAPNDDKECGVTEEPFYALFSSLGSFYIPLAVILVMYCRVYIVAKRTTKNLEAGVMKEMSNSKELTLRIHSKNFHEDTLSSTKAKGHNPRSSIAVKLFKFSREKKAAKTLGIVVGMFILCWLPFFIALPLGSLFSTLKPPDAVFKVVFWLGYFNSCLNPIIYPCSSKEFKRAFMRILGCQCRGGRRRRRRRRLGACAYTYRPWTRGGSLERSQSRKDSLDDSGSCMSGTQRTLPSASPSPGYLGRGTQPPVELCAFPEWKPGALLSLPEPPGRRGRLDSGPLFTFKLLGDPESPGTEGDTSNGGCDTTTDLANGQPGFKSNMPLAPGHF
In short: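 Filter binding with Wistar rat liver α1B preparation: test compound plus 0.25 nM [3H]prazosin, 1 h at 25° C in modified Tris-HCl buffer pH 7.4.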

[3] = molecular target: T3, human recombinant adrenergic α2A receptor (Homo sapiens, UniProt P08913); assay: Radioligand binding, adrenergic α2A ([3H]MK-912)
T3 construct: expressed in transfected cells; host or cells: insect Sf9 cells
T3 sequence (P08913 1-465): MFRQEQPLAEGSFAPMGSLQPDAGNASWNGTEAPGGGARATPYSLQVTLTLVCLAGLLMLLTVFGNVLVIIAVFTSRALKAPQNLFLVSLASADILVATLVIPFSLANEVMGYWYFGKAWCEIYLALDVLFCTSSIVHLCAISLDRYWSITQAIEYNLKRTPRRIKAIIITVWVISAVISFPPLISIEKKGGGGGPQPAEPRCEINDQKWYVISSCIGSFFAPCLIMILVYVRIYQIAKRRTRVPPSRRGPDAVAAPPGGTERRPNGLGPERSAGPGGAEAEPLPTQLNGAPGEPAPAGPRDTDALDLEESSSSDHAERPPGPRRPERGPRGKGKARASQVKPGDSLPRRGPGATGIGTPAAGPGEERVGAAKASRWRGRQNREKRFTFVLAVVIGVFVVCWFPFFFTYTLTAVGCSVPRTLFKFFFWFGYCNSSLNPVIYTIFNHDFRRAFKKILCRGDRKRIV
In short: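 Receptor expressed in insect Sf9 cells, assayed in 50 mM Tris-HCl pH 7.4 with 12.5 mM MgCl2 and 2 mM EDTA. Compounds incubated with 1 nM [3H]MK-912 for 60 min at 25 °C; nonspecific binding defined with 10 μM WB-4101. Filter-bound radioactivity counted; values are percent inhibition of specific binding.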

[4] = read-out: Percentage inhibition of ligand binding, Adrenergic α2B (0.03 μM), compound at 0.03 μM, [3H]Rauwolscine, repeat datapoints each shown
[5] = read-out: Percentage inhibition of ligand binding, Adrenergic α1B (0.1 μM), compound at 0.1 μM, [3H]Prazosin, repeat datapoints each shown
[6] = read-out: Percentage inhibition of ligand binding, Adrenergic α2A (0.1 μM), compound at 0.1 μM, [3H]MK-912, repeat datapoints each shown
[7] = 0.03 μM compound, read-out: Percentage inhibition of ligand binding, Adrenergic α2B
[8] = 0.1 μM compound, read-out: Percentage inhibition of ligand binding, Adrenergic α1B
[9] = 0.1 μM compound, read-out: Percentage inhibition of ligand binding, Adrenergic α2A

inhibition at 0.03 µM [1, 4] [%]	inhibition at 0.1 µM [2, 5] [%]	inhibition at 0.1 µM [3, 6] [%]	inhibition at 0.03 µM [1, 7] [%]	inhibition at 0.1 µM [2, 8] [%]	inhibition at 0.1 µM [3, 9] [%]	Structure (SMILES)
52	57	13	–	–	–	Cc1ccc2c(c1)c1c(n2CC(O)c2ccncc2C)CCN(C)C1 (stereo not drawn) [133a]
42	27	4	–	–	–	Cc1cnc2c(c1)c1c(n2CCc2cccnc2)CCN2CCCC12 (stereo not drawn) [134a, 9-methyl-6-(2-pyridin-3-yl-ethyl)-2,3,4,5,6,10c-hexahydro-1H-3a,6,7-triaza-cyclopenta[c]fluorene]
106	100	98	–	–	–	C/C(=C\n1c2c(c3cc(C)ccc31)C1CCCN1CC2)c1ccc(F)cc1 (stereo not drawn) [194a, 7-(2-(4-fluorophenyl)prop-1-enyl)-10-methyl-2,3,5,6,7,11c-hexahydro-1H-indolizino[7,8-b]indole]
81	82	31	–	–	–	Cc1ccc2c(c1)c1c(n2CCc2ccc(C)nc2)CCN2CCCC12 (stereo not drawn) [197a, 9-methyl-6-[2-(6-methyl-pyridin-3-yl)-ethyl]-2,3,4,5,6,10c-hexahydro-1H-3a, 6-diaza-cyclopenta[c]fluorene]
–	–	–	4	2	9	Cc1cc2c3c(n(CC(C)(O)c4cccnc4)c2cn1)CCN1CCCC31 (stereo not drawn) [II-5]
–	–	–	100	95	52	Cc1ccc2c(c1)c1c(n2CC(c2cnccn2)N(C)C)CCN2CCCC12 (stereo not drawn) [II-7, dimethyl-[2-(9-methyl-1,2,3,4,5,10c-hexahydro-3a,6-diaza-cyclopenta[c]fluoren-6-yl)-1-pyrazin-2-yl-ethyl]-amine]
–	–	–	78	30	7	Cc1ccc2c(c1)c1c(n2CC(NC2CCCC2)c2ccncc2)CCN(C)C1 (stereo not drawn) [II-9, cyclopentyl-[2-(2,8-dimethyl-1,2,3,4-tetrahydro-pyrido[4,3-b]indol-5-yl)-1-pyridin-4-yl-ethyl]-amine]

Continued, compound first:

Structure (SMILES)	inhibition at 0.03 µM [1, 4] [%]	inhibition at 0.1 µM [2, 5] [%]	inhibition at 0.1 µM [3, 6] [%]	inhibition at 0.03 µM [1, 7] [%]	inhibition at 0.1 µM [2, 8] [%]	inhibition at 0.1 µM [3, 9] [%]
Cc1ccc2c(c1)c1c(n2CC(O)c2cnn(C)c2)CCN(C)C1 (stereo not drawn) [131a, 2-(1,2,3,4-tetrahydro-2,8-dimethylpyrido[4,3-b]indol-5-yl)-1-(1-methyl-1H-pyrazol-4-yl)ethanol]	30	24	10	–	–	–
Cc1ccc2c(c1)c1c(n2CC(O)c2ccc(C(N)=O)nc2)CCN(C)C1 (stereo not drawn) [144a, 5-[2-(2,8-dimethyl-1,2,3,4-tetrahydro-pyrido[4,3-b]indol-5-yl)-1-hydroxy-ethyl]-pyridine-2-carboxylic acid amide]	40	57	1	–	–	–
Cc1ccc(C(O)Cn2c3c(c4cc(C)ccc42)CN(C)CC3)cc1 (stereo not drawn) [183a, 2-(1,2,3,4-tetrahydro-2,8-dimethylpyrido[4,3-b]indol-5-yl)-1-p-tolylethanol]	82	77	56	–	–	–
C/C(=C\n1c2c(c3cc(C)ccc31)CN(C)CC2)c1ccncc1 [II-2]	–	–	–	96	74	49
CCNC(Cn1c2c(c3cc(C)ccc31)CN(C)CC2)c1ccncc1 (stereo not drawn) [II-8, [2-(2,8-dimethyl-1,2,3,4-tetrahydro-pyrido[4,3-b]indol-5-yl)-1-pyridin-4-yl-ethyl]-ethyl-amine]	–	–	–	70	6	9
